According to ChEMBL document CHEMBL1150679, “Genipatriol, a new cycloartane triterpene from Genipa spruceana” (J Nat Prod, 2003):
Activity calls are given as the source filed them. The calls are words filed in the database; no cut-off is given here.

Test system: Nakaseomyces glabratus
Assay: Antimicrobial activity against Candida glabrata assessed as reversal of azole resistance after 24 to 48 hrs
Type: functional, organism-based

Compound	Activity
C[C@H]1[C@H](C)CC[C@]2(C(=O)O)CC[C@]3(C)C(=CC[C@@H]4[C@@]5(C)CC[C@H](O)C(C)(C)[C@@H]5CC[C@]43C)[C@H]12	inactive
C/C(=C/CC[C@@H](C)[C@H]1CC[C@@]2(C)[C@@H]3CC[C@H]4C(C)(C)[C@@H](O)[C@H](O)C[C@@]45C[C@@]35CC[C@]12C)CO	inactive
